Data on 4 compounds can be found in patent US20210127673A1, “HERBICIDES” (SYNGENTA PARTICIPATIONS AG, priority 2016, published 2021).

Common to all, as to assay type: in vivo
Settings in all cases: 1000 g/ha, evaluated after 13 days

The test system of assay [1] is Setaria faberi (SETFA). The assay can be described thus: Post-emergence herbicidal activity, Setaria faberi. Further details: key: 5=total damage to plant; 0=no damage to plant. The method, then:
(§1) Seeds of a variety of test species were sown in standard soil in pots: Triticum aestivium (TRZAW), Avena fatua (AVEFA), Alopecurus myosuroides (ALOMY), Echinochloa crus-galli (ECHCG), Lolium perenne (LOLPE), Zea Mays (ZEAMX), Abutilon theophrasti (ABUTH), Amaranthus retroflexus (AMARE) and Setaria faberi (SETFA). After 8 days cultivation (post-emergence) under controlled conditions in a glasshouse (at 24/16° C., day/night; 14 hours light; 65% humidity), the plants were sprayed with an aqueous spray solution derived from the formulation of the technical active ingredient in acetone/water (50:50) solution containing 0.5% Tween 20 (polyoxyethelyene sorbitan monolaurate, CAS RN 9005-64-5). The test plants were then grown in a glasshouse under controlled conditions (at 24/16° C., day/night; 14 hours light; 65% humidity) and watered twice daily. After 13 days, the test was evaluated (5=total damage to plant; 0=no damage to plant).

The subject of assay [2] is Triticum aestivium (TRZAW). The assay can be described thus: Pre-emergence herbicidal activity, Triticum aestivium. Further details: key: 5=total damage to plant; 0=no damage to plant. As to the method: (§2) Seeds of a variety of test species were sown in standard soil in pots: Triticum aestivium (TRZAW), Avena fatua (AVEFA), Alopecurus myosuroides (ALOMY), Echinochloa crus-galli (ECHCG), Lolium perenne (LOLPE), Zea Mays (ZEAMX), Abutilon theophrasti (ABUTH), Amaranthus retroflexus (AMARE) and Setaria faberi (SETFA). After cultivation for one day (pre-emergence) under controlled conditions in a glasshouse (at 24/16° C., day/night; 14 hours light; 65% humidity), the plants were sprayed with an aqueous spray solution derived from the formulation of the technical active ingredient in acetone/water (50:50) solution containing 0.5% Tween 20 (polyoxyethelyene sorbitan monolaurate, CAS RN 9005-64-5). The test plants were then grown in a glasshouse under controlled conditions (at 24/16°, day/night; 14 hours light; 65% humidity) and watered twice daily. After 13 days, the test was evaluated (5=total damage to plant; 0=no damage to plant).

In assay [3] the test system is Avena fatua (AVEFA). The assay can be described thus: Post-emergence herbicidal activity, Avena fatua. As to the method:
as §1

The test system of assay [4] is Alopecurus myosuroides (ALOMY). In words: Post-emergence herbicidal activity, Alopecurus myosuroides. On the set-up: key: 5=total damage to plant; 0=no damage to plant. As to the method: as §1
In assay [5] the test system is Setaria faberi (SETFA). In words: Pre-emergence herbicidal activity, Setaria faberi. Further details: key: 5=total damage to plant; 0=no damage to plant. As to the method: as §2
Assay [6] relates to Lolium perenne (LOLPE). In words: Pre-emergence herbicidal activity, Lolium perenne. On the set-up: key: 5=total damage to plant; 0=no damage to plant. The method, then:
as §2

In assay [7] the test system is Echinochloa crus-galli (ECHCG). In words: Post-emergence herbicidal activity, Echinochloa crus-galli. Further details: key: 5=total damage to plant; 0=no damage to plant. As to the method: as §1
For assay [8], the system named is Lolium perenne (LOLPE). The assay can be described thus: Post-emergence herbicidal activity, Lolium perenne. As to the method:
as §1

In assay [9] the test system is Avena fatua (AVEFA). The assay can be described thus: Pre-emergence herbicidal activity, Avena fatua. Further details: key: 5=total damage to plant; 0=no damage to plant. As to the method: as §2
Assay [10] relates to Alopecurus myosuroides (ALOMY). In words: Pre-emergence herbicidal activity, Alopecurus myosuroides. Further details: key: 5=total damage to plant; 0=no damage to plant. The method, then: as §2
Assay [11] deals with Triticum aestivium (TRZAW). The assay can be described thus: Post-emergence herbicidal activity, Triticum aestivium. Further details: key: 5=total damage to plant; 0=no damage to plant. The method, then: as §1
For assay [12], the system named is Echinochloa crus-galli (ECHCG). In words: Pre-emergence herbicidal activity, Echinochloa crus-galli. Further details: key: 5=total damage to plant; 0=no damage to plant. As to the method: as §2

With `CNC(=O)N(C)c1ccc(-c2cncc(F)c2)nc1C(F)(F)F` [Compound B73], the “Control of SETFA after post-emergence application (score 0-5)” value in the assay on Setaria faberi (SETFA) [1] is 4. Further, in assay [2], the “Control of TRAZW after pre-emergence application (score 0-5)” value was 0. The “Control of AVEFA after post-emergence application (score 0-5)” value with Avena fatua (AVEFA) [3] is listed as 3. Further, in assay [4], the “Control of ALOMY after post-emergence application (score 0-5)” value turned out to be 1. The “Control of SETFA after pre-emergence application (score 0-5)” value in the assay with Setaria faberi (SETFA) [5] worked out at 4. Further, the “Control of LOLPE after pre-emergence application (score 0-5)” value with Lolium perenne (LOLPE) [6] is 1. In assay [7], the “Control of ECHCG after post-emergence application (score 0-5)” value is 4. Also, the “Control of LOLPE after post-emergence application (score 0-5)” value in the assay with Lolium perenne (LOLPE) [8] worked out at 2. For the same compound, in the assay on Avena fatua (AVEFA) [9], the “Control of AVEFA after pre-emergence application (score 0-5)” value is given as 0. The “Control of ALOMY after pre-emergence application (score 0-5)” value in assay [10] is 0. Also, the “Control of TRAZW after post-emergence application (score 0-5)” value in assay [11] turned out to be 1. In addition, in assay [12], the “Control of ECHCG after pre-emergence application (score 0-5)” value amounted to 2.
As to `O=C(Nc1ccc(-c2cncc(F)c2)nc1C(F)(F)F)N1CCSCC1` [Compound B54], the “Control of SETFA after post-emergence application (score 0-5)” value in the assay on Setaria faberi (SETFA) [1] is listed as 4. In addition, the “Control of TRAZW after pre-emergence application (score 0-5)” value in assay [2] turned out to be 0. In the assay with Avena fatua (AVEFA) [3], the “Control of AVEFA after post-emergence application (score 0-5)” value is recorded as 4. Besides, the “Control of ALOMY after post-emergence application (score 0-5)” value in assay [4] came to 1. For the same compound, the “Control of SETFA after pre-emergence application (score 0-5)” value with Setaria faberi (SETFA) [5] was 3. Moreover, in the assay on Lolium perenne (LOLPE) [6], the “Control of LOLPE after pre-emergence application (score 0-5)” value is 1. Moreover, the “Control of ECHCG after post-emergence application (score 0-5)” value in assay [7] was 4. Also, the “Control of LOLPE after post-emergence application (score 0-5)” value with Lolium perenne (LOLPE) [8] came to 3. Also, the “Control of AVEFA after pre-emergence application (score 0-5)” value with Avena fatua (AVEFA) [9] came out at 2. Further, in [10], the “Control of ALOMY after pre-emergence application (score 0-5)” value came to 0. Besides, the “Control of TRAZW after post-emergence application (score 0-5)” value in [11] is listed as 1. The “Control of ECHCG after pre-emergence application (score 0-5)” value in assay [12] was 3.
Consider `CC(C)(C)OC(=O)N(C(=O)OC(C)(C)C)c1ccc(-c2cncc(F)c2)nc1C(F)(F)F` [Compound B113], for which the “Control of SETFA after post-emergence application (score 0-5)” value in the assay with Setaria faberi (SETFA) [1] is recorded as 5. For the same compound, the “Control of TRAZW after pre-emergence application (score 0-5)” value in assay [2] was 0. Besides, the “Control of AVEFA after post-emergence application (score 0-5)” value in the assay with Avena fatua (AVEFA) [3] was 4. Moreover, the “Control of ALOMY after post-emergence application (score 0-5)” value in assay [4] was 1. For the same compound, the “Control of SETFA after pre-emergence application (score 0-5)” value in the assay on Setaria faberi (SETFA) [5] is recorded as 5. For the same compound, the “Control of LOLPE after pre-emergence application (score 0-5)” value in the assay with Lolium perenne (LOLPE) [6] was 1. The “Control of ECHCG after post-emergence application (score 0-5)” value in assay [7] was 5. Moreover, in the assay on Lolium perenne (LOLPE) [8], the “Control of LOLPE after post-emergence application (score 0-5)” value is 3. Also, in the assay on Avena fatua (AVEFA) [9], the “Control of AVEFA after pre-emergence application (score 0-5)” value is 3. For the same compound, in assay [10], the “Control of ALOMY after pre-emergence application (score 0-5)” value is recorded as 1. For the same compound, in [11], the “Control of TRAZW after post-emergence application (score 0-5)” value came to 2. Also, in assay [12], the “Control of ECHCG after pre-emergence application (score 0-5)” value was 5.
`CN1COCN(c2ccc(-c3cncc(F)c3)nc2C(F)(F)F)C1=O` [Compound B121, 3-[6-(5-fluoro-3-pyridyl)-2-(trifluoromethyl)-3-pyridyl]-5-methyl-1,3,5-oxadiazinan-4-one]: the “Control of SETFA after post-emergence application (score 0-5)” value in the assay with Setaria faberi (SETFA) [1] is given as 5. In addition, the “Control of TRAZW after pre-emergence application (score 0-5)” value in [2] amounted to 0. In the assay with Avena fatua (AVEFA) [3], the “Control of AVEFA after post-emergence application (score 0-5)” value is recorded as 3. Further, the “Control of ALOMY after post-emergence application (score 0-5)” value in assay [4] was found to be 0. Moreover, in the assay with Setaria faberi (SETFA) [5], the “Control of SETFA after pre-emergence application (score 0-5)” value is listed as 4. The “Control of LOLPE after pre-emergence application (score 0-5)” value in the assay on Lolium perenne (LOLPE) [6] came out at 0. Besides, the “Control of ECHCG after post-emergence application (score 0-5)” value in assay [7] came to 3. For the same compound, in the assay on Lolium perenne (LOLPE) [8], the “Control of LOLPE after post-emergence application (score 0-5)” value came to 2. Further, the “Control of AVEFA after pre-emergence application (score 0-5)” value with Avena fatua (AVEFA) [9] is 0. Further, the “Control of ALOMY after pre-emergence application (score 0-5)” value in assay [10] is listed as 0. The “Control of TRAZW after post-emergence application (score 0-5)” value in assay [11] was 0. Also, the “Control of ECHCG after pre-emergence application (score 0-5)” value in [12] is 2.
